Assay results taken from ChEMBL document CHEMBL4507305, “Data for DCP probe TP-024” (2021).

How the values were obtained:
[1] = system: Proto-oncogene tyrosine-protein kinase receptor Ret (Homo sapiens), P07949 [M918T]; conditions: Compound concentration 1000.0 nM
[2] = target: Muscarinic acetylcholine receptor M4 (Homo sapiens) (UniProt P08173); conditions: Compound concentration 10.0 uM
[3] = target: Glycogen synthase kinase-3 beta (Homo sapiens) (UniProt P49841); conditions: Compound concentration 1000.0 nM
[4] = target: Proto-oncogene tyrosine-protein kinase receptor Ret (Homo sapiens) (UniProt P07949); conditions: Compound concentration 1000.0 nM
[5] = system: Epidermal growth factor receptor (Homo sapiens), P00533 [G719C]; conditions: Compound concentration 1000.0 nM
[6] = target: Ephrin type-B receptor 3 (Homo sapiens) (UniProt P54753); conditions: Compound concentration 1000.0 nM
[7] = system: Phosphatidylinositol 4,5-bisphosphate 3-kinase catalytic subunit alpha isoform (Homo sapiens), P42336 [M1043I]; conditions: Compound concentration 1000.0 nM
[8] = target: RAF proto-oncogene serine/threonine-protein kinase (Homo sapiens) (UniProt P04049); conditions: Compound concentration 1000.0 nM
[9] = system: Epidermal growth factor receptor (Homo sapiens), P00533 [UNDEFINED MUTATION]; conditions: Compound concentration 1000.0 nM
[10] = target: RAC-alpha serine/threonine-protein kinase (Homo sapiens) (UniProt P31749); conditions: Compound concentration 1000.0 nM
[11] = target: Discoidin domain-containing receptor 2 (Homo sapiens) (UniProt Q16832); conditions: Compound concentration 1000.0 nM
[12] = target: Ephrin type-A receptor 3 (Homo sapiens) (UniProt P29320); conditions: Compound concentration 1000.0 nM
[13] = target: Serine/threonine-protein kinase 25 (Homo sapiens) (UniProt O00506); conditions: Compound concentration 1000.0 nM
[14] = system: Tyrosine-protein kinase ABL1 (Homo sapiens), P00519 [Y253F]; conditions: Compound concentration 1000.0 nM
[15] = target: Epithelial discoidin domain-containing receptor 1 (Homo sapiens) (UniProt Q08345); conditions: Compound concentration 1000.0 nM
[16] = target: Mitogen-activated protein kinase 9 (Homo sapiens) (UniProt P45984); conditions: Compound concentration 1000.0 nM
[17] = target: Mitogen-activated protein kinase kinase kinase kinase 2 (Homo sapiens) (UniProt Q12851); conditions: Compound concentration 1000.0 nM
[18] = target: Serine/threonine-protein kinase STK11 (Homo sapiens) (UniProt Q15831); conditions: Compound concentration 1000.0 nM
[19] = target: Casein kinase I isoform gamma-1 (Homo sapiens) (UniProt Q9HCP0); conditions: Compound concentration 1000.0 nM
[20] = target: Rho-associated protein kinase 1 (Homo sapiens) (UniProt Q13464); conditions: Compound concentration 1000.0 nM
[21] = target: Death-associated protein kinase 2 (Homo sapiens) (UniProt Q9UIK4); conditions: Compound concentration 1000.0 nM
[22] = target: Serine/threonine-protein kinase 10 (Homo sapiens) (UniProt O94804); conditions: Compound concentration 1000.0 nM
[23] = target: Beta-3 adrenergic receptor (Homo sapiens) (UniProt P13945); conditions: Compound concentration 10.0 uM
[24] = target: Mitotic checkpoint serine/threonine-protein kinase BUB1 (Homo sapiens) (UniProt O43683); conditions: Compound concentration 1000.0 nM
[25] = system: Receptor-type tyrosine-protein kinase FLT3 (Homo sapiens), P36888 [D835H]; conditions: Compound concentration 1000.0 nM
[26] = target: Ephrin type-A receptor 2 (Homo sapiens) (UniProt P29317); conditions: Compound concentration 1000.0 nM
[27] = target: NT-3 growth factor receptor (Homo sapiens) (UniProt Q16288); conditions: Compound concentration 1000.0 nM
[28] = target: Receptor-type tyrosine-protein kinase FLT3 (Homo sapiens) (UniProt P36888); conditions: Compound concentration 1000.0 nM
[29] = target: BDNF/NT-3 growth factors receptor (Homo sapiens) (UniProt Q16620); conditions: Compound concentration 1000.0 nM
[30] = target: Serine/threonine-protein kinase MAK (Homo sapiens) (UniProt P20794); conditions: Compound concentration 1000.0 nM
[31] = target: Serine/threonine-protein kinase Nek9 (Homo sapiens) (UniProt Q8TD19); conditions: Compound concentration 1000.0 nM
[32] = target: Serine/threonine-protein kinase D1 (Homo sapiens) (UniProt Q15139); conditions: Compound concentration 1000.0 nM
[33] = system: eIF-2-alpha kinase GCN2 (Homo sapiens), Q9P2K8 [S808G]; conditions: Compound concentration 1000.0 nM
[34] = system: Tyrosine-protein kinase ABL1 (Homo sapiens), P00519 [F317L]; conditions: Compound concentration 1000.0 nM
[35] = target: Ankyrin repeat and protein kinase domain-containing protein 1 (Homo sapiens) (UniProt Q8NFD2); conditions: Compound concentration 1000.0 nM
[36] = target: Dual specificity protein kinase CLK4 (Homo sapiens) (UniProt Q9HAZ1); conditions: Compound concentration 1000.0 nM
[37] = target: 1-phosphatidylinositol 3-phosphate 5-kinase (Homo sapiens) (UniProt Q9Y2I7); conditions: Compound concentration 1000.0 nM
[38] = target: D(4) dopamine receptor (Homo sapiens) (UniProt P21917); conditions: Compound concentration 10.0 uM
[39] = target: Tyrosine-protein kinase Fes/Fps (Homo sapiens) (UniProt P07332); conditions: Compound concentration 1000.0 nM
[40] = system: Epidermal growth factor receptor (Homo sapiens), P00533 [UNDEFINED MUTATION]; conditions: Compound concentration 1000.0 nM; remark: listed apart in the source
[41] = system: Tyrosine-protein kinase ABL1 (Homo sapiens), P00519 [Q252H]; conditions: Compound concentration 1000.0 nM
[42] = target: Serine/threonine-protein kinase LATS2 (Homo sapiens) (UniProt Q9NRM7); conditions: Compound concentration 1000.0 nM
[43] = target: Aurora kinase B (Homo sapiens) (UniProt Q96GD4); conditions: Compound concentration 1000.0 nM
[44] = target: Serine/threonine-protein kinase 16 (Homo sapiens) (UniProt O75716); conditions: Compound concentration 1000.0 nM
[45] = target: Serine/threonine-protein kinase SIK1 (Homo sapiens) (UniProt P57059); conditions: Compound concentration 1000.0 nM

Death-associated protein kinase 2 (Homo sapiens), sequence (Q9UIK4 whole entry, looked up): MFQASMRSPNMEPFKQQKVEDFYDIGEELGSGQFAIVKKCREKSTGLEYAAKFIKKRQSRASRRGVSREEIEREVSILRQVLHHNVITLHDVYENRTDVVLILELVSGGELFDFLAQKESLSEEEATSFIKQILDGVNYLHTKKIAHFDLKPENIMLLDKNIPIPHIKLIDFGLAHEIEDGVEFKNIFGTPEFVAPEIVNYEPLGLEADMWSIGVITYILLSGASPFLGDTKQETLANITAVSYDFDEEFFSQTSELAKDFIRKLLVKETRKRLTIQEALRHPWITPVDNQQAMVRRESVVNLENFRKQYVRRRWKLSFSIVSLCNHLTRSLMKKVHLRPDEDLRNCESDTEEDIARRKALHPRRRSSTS
Discoidin domain-containing receptor 2 (Homo sapiens), sequence (Q16832 whole entry, the tested form may be a part): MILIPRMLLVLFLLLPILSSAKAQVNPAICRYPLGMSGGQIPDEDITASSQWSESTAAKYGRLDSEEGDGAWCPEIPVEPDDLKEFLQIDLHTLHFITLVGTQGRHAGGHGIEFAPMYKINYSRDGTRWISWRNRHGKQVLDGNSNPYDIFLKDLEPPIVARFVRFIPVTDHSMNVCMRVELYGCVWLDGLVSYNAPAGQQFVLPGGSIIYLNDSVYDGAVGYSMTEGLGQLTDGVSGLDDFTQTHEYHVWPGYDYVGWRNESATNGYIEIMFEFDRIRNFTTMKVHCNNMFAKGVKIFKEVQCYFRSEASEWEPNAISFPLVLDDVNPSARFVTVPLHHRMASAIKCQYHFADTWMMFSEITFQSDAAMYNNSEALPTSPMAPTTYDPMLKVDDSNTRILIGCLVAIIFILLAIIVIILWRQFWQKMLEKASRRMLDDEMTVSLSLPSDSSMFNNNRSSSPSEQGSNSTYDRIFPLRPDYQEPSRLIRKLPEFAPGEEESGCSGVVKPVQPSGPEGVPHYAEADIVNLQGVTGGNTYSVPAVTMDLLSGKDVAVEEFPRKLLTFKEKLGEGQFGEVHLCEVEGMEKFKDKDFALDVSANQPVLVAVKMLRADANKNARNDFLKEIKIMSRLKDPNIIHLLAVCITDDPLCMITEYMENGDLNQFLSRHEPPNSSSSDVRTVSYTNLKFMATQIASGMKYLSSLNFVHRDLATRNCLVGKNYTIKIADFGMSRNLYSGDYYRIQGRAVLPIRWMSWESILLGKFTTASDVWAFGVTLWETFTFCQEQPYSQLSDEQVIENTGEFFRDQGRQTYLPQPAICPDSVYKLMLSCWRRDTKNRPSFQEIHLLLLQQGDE
Serine/threonine-protein kinase 10 (Homo sapiens), sequence (O94804 whole entry, looked up): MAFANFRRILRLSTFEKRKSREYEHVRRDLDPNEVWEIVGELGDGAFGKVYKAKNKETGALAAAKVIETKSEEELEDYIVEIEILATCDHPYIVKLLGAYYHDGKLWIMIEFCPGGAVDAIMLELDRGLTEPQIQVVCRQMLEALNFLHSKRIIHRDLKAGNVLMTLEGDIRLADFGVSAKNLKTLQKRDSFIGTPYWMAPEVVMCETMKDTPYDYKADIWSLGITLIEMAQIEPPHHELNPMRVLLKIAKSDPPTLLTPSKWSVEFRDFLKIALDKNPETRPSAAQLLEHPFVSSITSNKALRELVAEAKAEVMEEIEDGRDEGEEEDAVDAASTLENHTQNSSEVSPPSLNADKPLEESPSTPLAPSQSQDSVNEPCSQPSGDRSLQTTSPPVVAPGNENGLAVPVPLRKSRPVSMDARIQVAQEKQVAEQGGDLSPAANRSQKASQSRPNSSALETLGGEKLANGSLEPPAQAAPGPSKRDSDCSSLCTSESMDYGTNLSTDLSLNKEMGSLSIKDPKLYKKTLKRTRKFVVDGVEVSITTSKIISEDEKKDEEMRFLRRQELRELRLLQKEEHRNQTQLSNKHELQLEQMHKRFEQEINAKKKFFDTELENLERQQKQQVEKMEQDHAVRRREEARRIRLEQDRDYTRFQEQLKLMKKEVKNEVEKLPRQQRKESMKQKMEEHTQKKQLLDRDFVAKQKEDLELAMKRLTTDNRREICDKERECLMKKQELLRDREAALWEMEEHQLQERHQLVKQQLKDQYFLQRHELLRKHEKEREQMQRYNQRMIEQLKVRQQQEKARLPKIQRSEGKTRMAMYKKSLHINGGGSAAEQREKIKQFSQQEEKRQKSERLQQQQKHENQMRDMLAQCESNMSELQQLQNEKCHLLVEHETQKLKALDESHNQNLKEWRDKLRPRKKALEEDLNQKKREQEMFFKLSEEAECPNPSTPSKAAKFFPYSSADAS
Serine/threonine-protein kinase Nek9 (Homo sapiens), sequence (Q8TD19 whole entry): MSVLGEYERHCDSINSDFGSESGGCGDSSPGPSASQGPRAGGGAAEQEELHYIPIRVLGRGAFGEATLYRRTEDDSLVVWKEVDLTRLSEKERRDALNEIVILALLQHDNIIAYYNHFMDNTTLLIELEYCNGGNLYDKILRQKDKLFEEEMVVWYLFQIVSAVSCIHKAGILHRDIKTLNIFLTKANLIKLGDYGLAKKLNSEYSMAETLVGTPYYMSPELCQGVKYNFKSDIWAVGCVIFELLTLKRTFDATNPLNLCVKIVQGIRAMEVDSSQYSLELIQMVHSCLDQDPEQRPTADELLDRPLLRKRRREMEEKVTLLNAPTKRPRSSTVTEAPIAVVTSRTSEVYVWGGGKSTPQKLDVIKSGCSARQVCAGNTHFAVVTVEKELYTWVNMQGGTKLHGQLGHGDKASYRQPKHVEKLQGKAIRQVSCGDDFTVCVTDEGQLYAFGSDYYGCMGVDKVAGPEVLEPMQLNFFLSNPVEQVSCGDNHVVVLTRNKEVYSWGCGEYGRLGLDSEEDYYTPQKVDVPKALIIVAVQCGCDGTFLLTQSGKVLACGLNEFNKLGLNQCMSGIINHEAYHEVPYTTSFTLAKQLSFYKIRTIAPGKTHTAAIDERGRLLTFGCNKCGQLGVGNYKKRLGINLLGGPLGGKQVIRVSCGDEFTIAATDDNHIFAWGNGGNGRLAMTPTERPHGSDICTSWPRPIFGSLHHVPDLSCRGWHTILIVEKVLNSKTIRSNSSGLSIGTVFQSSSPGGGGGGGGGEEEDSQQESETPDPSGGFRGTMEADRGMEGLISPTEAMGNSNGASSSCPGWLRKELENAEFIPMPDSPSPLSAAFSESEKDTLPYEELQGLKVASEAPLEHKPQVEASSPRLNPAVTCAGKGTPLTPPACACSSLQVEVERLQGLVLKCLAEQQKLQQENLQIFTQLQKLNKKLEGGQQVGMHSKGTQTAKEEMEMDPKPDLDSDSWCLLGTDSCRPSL
Serine/threonine-protein kinase 25 (Homo sapiens), sequence (O00506 whole entry, looked up): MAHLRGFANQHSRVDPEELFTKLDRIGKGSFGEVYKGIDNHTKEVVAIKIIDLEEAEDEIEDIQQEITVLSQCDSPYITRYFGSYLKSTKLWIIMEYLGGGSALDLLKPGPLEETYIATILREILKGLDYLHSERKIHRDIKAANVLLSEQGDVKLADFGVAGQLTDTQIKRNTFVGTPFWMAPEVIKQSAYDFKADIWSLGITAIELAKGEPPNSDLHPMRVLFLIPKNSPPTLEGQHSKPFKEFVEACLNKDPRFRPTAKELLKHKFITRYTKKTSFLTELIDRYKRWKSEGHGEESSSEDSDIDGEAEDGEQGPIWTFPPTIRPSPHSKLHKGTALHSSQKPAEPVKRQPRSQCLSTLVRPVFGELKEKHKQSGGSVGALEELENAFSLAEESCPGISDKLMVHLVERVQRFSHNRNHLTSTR
Mitogen-activated protein kinase 9 (Homo sapiens), sequence (P45984 whole entry, looked up): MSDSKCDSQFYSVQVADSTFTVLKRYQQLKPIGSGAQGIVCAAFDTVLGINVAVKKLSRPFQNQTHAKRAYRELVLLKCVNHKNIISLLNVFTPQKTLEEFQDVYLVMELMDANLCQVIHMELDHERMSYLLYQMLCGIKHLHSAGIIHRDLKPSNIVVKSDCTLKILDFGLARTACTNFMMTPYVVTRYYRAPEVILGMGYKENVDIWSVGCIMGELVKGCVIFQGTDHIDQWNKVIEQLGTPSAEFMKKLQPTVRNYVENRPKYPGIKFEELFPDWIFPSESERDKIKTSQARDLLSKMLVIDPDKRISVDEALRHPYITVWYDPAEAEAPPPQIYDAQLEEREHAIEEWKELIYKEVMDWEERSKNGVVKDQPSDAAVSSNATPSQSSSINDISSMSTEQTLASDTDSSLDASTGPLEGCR
Ephrin type-B receptor 3 (Homo sapiens), sequence (P54753 whole entry, canonical isoform): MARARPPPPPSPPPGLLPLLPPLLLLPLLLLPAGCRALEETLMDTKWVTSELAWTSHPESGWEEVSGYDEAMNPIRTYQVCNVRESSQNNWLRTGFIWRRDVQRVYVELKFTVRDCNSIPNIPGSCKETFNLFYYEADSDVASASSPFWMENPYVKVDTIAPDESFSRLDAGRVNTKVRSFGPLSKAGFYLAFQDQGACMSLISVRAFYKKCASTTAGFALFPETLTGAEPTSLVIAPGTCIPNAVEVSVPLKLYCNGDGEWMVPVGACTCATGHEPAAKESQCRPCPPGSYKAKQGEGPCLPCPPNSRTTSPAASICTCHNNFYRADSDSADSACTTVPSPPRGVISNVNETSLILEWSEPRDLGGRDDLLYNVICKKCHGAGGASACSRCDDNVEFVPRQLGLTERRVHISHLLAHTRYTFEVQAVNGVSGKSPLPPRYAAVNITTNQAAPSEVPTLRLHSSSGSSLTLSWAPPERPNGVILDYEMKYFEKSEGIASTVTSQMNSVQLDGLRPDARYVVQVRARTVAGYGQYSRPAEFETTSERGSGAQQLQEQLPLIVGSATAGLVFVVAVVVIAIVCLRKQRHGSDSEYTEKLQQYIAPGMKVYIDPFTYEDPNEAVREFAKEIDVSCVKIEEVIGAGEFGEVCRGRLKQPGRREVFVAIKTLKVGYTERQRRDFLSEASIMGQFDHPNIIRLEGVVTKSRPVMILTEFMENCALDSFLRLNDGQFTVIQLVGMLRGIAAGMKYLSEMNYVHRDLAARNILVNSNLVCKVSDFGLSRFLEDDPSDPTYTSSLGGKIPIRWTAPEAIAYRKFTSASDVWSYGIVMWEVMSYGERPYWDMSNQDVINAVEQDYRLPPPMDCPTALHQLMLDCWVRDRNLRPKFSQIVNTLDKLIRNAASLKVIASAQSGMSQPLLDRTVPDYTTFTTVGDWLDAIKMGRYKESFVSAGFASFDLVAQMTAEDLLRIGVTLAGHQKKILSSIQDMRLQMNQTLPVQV

## Cc1nc(Cc2cccc(C(F)(F)F)c2)sc1-c1ccc(C(N)=O)nc1 [TP-024n]
[1]
  residual activity: 95%
[2]
  inhibition: 2.94%
[3]
  residual activity: 100%
[4]
  residual activity: 100%
[5]
  residual activity: 94%
[6]
  residual activity: 100%
[7]
  residual activity: 15%
[8]
  residual activity: 70%
[9]
  residual activity: 100%
[10]
  residual activity: 82%
[11]
  residual activity: 100%
[12]
  residual activity: 88%
[13]
  residual activity: 88%
[14]
  residual activity: 88%
[15]
  residual activity: 100%
[16]
  residual activity: 100%
[17]
  residual activity: 100%
[18]
  residual activity: 100%
[19]
  residual activity: 97%
[20]
  residual activity: 69%
[21]
  residual activity: 89%
[22]
  residual activity: 100%
[23]
  inhibition: -1.63%
[24]
  residual activity: 100%
[25]
  residual activity: 100%
[26]
  residual activity: 68%
[27]
  residual activity: 69%
[28]
  residual activity: 93%
[29]
  residual activity: 84%
[30]
  residual activity: 81%
[31]
  residual activity: 100%
[32]
  residual activity: 93%
[33]
  residual activity: 100%
[34]
  residual activity: 89%
[35]
  residual activity: 95%
[36]
  residual activity: 83%
[37]
  residual activity: 75%
[38]
  inhibition: -2.16%
[39]
  residual activity: 99%
[40]
  residual activity: 100%
[41]
  residual activity: 87%
[42]
  residual activity: 90%
[43]
  residual activity: 100%
[44]
  residual activity: 100%
[45]
  residual activity: 100%

## Cc1cc(-n2nc(Cc3cc(F)cc(C(F)(F)F)c3)nc2C)ccc1C(N)=O [TP-024]
[1]
  residual activity: 100%
[2]
  inhibition: 6.9%
[3]
  residual activity: 98%
[4]
  residual activity: 96%
[5]
  residual activity: 100%
[6]
  residual activity: 100%
[7]
  residual activity: 95%
[8]
  residual activity: 87%
[9]
  residual activity: 100%
[10]
  residual activity: 94%
[11]
  residual activity: 100%
[12]
  residual activity: 94%
[13]
  residual activity: 89%
[14]
  residual activity: 90%
[15]
  residual activity: 86%
[16]
  residual activity: 81%
[17]
  residual activity: 100%
[18]
  residual activity: 100%
[19]
  residual activity: 100%
[20]
  residual activity: 100%
[21]
  residual activity: 95%
[22]
  residual activity: 100%
[23]
  inhibition: 4.48%
[24]
  residual activity: 100%
[25]
  residual activity: 100%
[26]
  residual activity: 100%
[27]
  residual activity: 94%
[28]
  residual activity: 100%
[29]
  residual activity: 98%
[30]
  residual activity: 100%
[31]
  residual activity: 100%
[32]
  residual activity: 92%
[33]
  residual activity: 100%
[34]
  residual activity: 100%
[35]
  residual activity: 100%
[36]
  residual activity: 96%
[37]
  residual activity: 70%
[38]
  inhibition: -2.09%
[39]
  residual activity: 100%
[40]
  residual activity: 100%
[41]
  residual activity: 94%
[42]
  residual activity: 100%
[43]
  residual activity: 87%
[44]
  residual activity: 91%
[45]
  residual activity: 100%
